# Like-named read-outs stand apart in the source and are kept apart here.
# What was measured:
# [1] = system: human peripheral blood pan T cells; experiment: IFNγ and IL-2 analysis of human peripheral pan T cells; assay type: cell-based; conditions: T-cell, CD3/CD28 bead stimulation, 100 nM Prostaglandin E2, 24 hr
# Experimental: IFNγ and IL-2 Analysis of Human Peripheral Pan T Cells
# Human peripheral blood pan T cells were purchased from STEMCELL™ Technologies Inc. Human peripheral blood pan T cells were thawed and suspended in DMEM media (10% FBS and 10 Penicillin/Streptomycin). 8×10^4 T cells were seeded in 96-well plate and incubated with various concentration of compounds and 100 nM Prostaglandin E2 for 1 hr. T cells were stimulated with Dynabeads Human T-Activator CD3/CD28 (Life Technologies) at a 1:3 cells: beads ratio. […] Data were analyzed with an MESO Quickplex SQ120 (Mesoscale Discovery).
# In Table 3, the values represent + for >1000 nM, ++ 200-1,000 nM, +++ for <200 nM and − for not determined.
# [2] = biological target: recombinant human HPK1 (Homo sapiens (Human), UniProt Q92918); experiment: HPK1 kinase assay (ADP-Glo); assay type: biochemical; conditions: 25 μM ATP, MBP substrate
# Sequence of recombinant human HPK1 (Q92918 whole entry): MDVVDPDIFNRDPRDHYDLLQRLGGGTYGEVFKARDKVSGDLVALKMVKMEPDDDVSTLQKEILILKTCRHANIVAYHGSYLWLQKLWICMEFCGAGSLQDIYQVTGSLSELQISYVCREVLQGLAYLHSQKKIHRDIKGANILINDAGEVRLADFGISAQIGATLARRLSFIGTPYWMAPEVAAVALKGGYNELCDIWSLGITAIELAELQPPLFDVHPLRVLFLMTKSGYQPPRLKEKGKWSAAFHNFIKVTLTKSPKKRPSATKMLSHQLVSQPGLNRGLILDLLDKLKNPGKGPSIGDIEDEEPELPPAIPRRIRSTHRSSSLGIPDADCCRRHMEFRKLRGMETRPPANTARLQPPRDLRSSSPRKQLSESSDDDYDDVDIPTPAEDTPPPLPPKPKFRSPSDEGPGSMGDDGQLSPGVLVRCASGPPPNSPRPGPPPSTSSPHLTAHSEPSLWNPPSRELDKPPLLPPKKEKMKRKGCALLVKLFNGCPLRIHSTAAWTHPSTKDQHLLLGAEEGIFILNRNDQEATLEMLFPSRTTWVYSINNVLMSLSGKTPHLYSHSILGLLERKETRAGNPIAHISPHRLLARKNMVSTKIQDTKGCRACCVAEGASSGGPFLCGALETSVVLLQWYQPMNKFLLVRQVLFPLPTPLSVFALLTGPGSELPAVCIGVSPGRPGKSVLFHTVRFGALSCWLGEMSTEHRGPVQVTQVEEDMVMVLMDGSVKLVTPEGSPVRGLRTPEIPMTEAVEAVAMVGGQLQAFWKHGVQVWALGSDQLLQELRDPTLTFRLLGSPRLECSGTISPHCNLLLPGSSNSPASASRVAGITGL
# How it was run: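 Activity was read as ADP formed, detected by ADP-Glo luminescence after the reaction of 5 ng recombinant human HPK1 with MBP and ATP (stocks 0.5 μg/μl and 25 μM) for 40 min at 30 °C. Buffer was Tris pH 7.5 with MgCl2, BSA and DTT, with compound in 0.5% DMSO. IC50 came from inhibition curves.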
# [3] = IFNγ secretion, read-out: IFNγ (EC50)
# [4] = IL-2 secretion, read-out: IL-2 (EC50)
SMILES,"EC50 [1, 3]","EC50 [1, 4]",IC50 [2]
"Cc1c(F)c(N(C)C)c2[nH]ncc2c1-c1ccc2nc(NC(=O)[C@@H]3C[C@@H]3F)sc2c1 [Example 104, (1S,2S)-N-(6-(7-(dimethylamino)-6-fluoro-5-methyl-1H-indazol-4-yl)benzo[d]thiazol-2-yl)-2-fluorocyclopropane-1-carboxamide]",200 to 1000 nM,> 1000 nM,< 100 nM
"CSc1c(F)c(SC)c2[nH]ncc2c1-c1ccc2nc(NC(=O)[C@@H]3C[C@@H]3F)sc2c1 [Example 111, (1S,2S)-2-fluoro-N-(6-(6-fluoro-5,7-bis(methylthio)-1H-indazol-4-yl)benzo[d]thiazol-2-yl)cyclopropane-1-carboxamide]",200 to 1000 nM,,
"CCOc1c(F)c(SC)c(-c2ccc3nc(NC(=O)[C@@H]4C[C@@H]4F)sc3c2)c2cn[nH]c12 [Example 118, (1S,2S)-N-(6-(7-ethoxy-6-fluoro-5-(methylthio)-1H-indazol-4-yl)benzo[d]thiazol-2-yl)-2-fluorocyclopropane-1-carboxamide]",< 200 nM,,< 100 nM
"CC(=O)N(C)c1c(F)c(Cl)c(-c2ccc3nc(NC(=O)[C@@H]4C[C@@H]4F)sc3c2)c2cn[nH]c12 [Example 123, (1S,2S)-N-(6-(5-chloro-6-fluoro-7-(N-methylacetamido)-1H-indazol-4-yl)benzo[d]thiazol-2-yl)-2-fluorocyclopropane-1-carboxamide]",200 to 1000 nM,> 1000 nM,< 100 nM
"Cc1c(F)c(C(=O)N(C)C)c2[nH]ncc2c1-c1ccc2nc(NC(=O)[C@@H]3C[C@@H]3F)sc2c1 [Example 134, 6-fluoro-4-(2-((1S,2S)-2-fluorocyclopropane-1-carboxamido)benzo[d]thiazol-6-yl)-N,N,5-trimethyl-1H-indazole-7-carboxamide]",< 200 nM,> 1000 nM,< 100 nM
"CCc1c(F)cc2[nH]ncc2c1-c1ccc2nc(NC(=O)[C@@H]3C[C@@H]3F)sc2n1 [Example 152, (1S,2S)—N-(5-(5-ethyl-6-fluoro-1H-indazol-4-yl)thiazolo[5,4-b]pyridin-2-yl)-2-fluorocyclopropane-1-carboxamide]",200 to 1000 nM,200 to 1000 nM,< 100 nM
"CCc1c(F)c(SC)c2[nH]ncc2c1-c1ccc2nc(NC(=O)[C@@H]3C[C@@H]3F)sc2n1 [Example 162, (1S,2S)-N-(5-(5-ethyl-6-fluoro-7-(methylthio)-1H-indazol-4-yl)thiazolo[5,4-b]pyridin-2-yl)-2-fluorocyclopropane-1-carboxamide]",200 to 1000 nM,,< 100 nM
"CCN(C)c1c(F)c(Cl)c(-c2ccc3nc(NC(=O)[C@@H]4C[C@@H]4F)sc3n2)c2cn[nH]c12 [Example 196, (1S,2S)-N-(5-(5-chloro-7-(ethyl(methyl)amino)-6-fluoro-1H-indazol-4-yl)thiazolo[5,4-b]pyridin-2-yl)-2-fluorocyclopropane-1-carboxamide]",200 to 1000 nM,,
"CCN(C)c1c(F)c(C)c(-c2ccc3nc(NC(=O)[C@@H]4C[C@@H]4F)cn3c2)c2cn[nH]c12 [Example 330, (1S,2S)-N-(6-(7-(ethyl(methyl)amino)-6-fluoro-5-methyl-1H-indazol-4-yl)imidazo[1,2-a]pyridin-2-yl)-2-fluorocyclopropane-1-carboxamide]",200 to 1000 nM,200 to 1000 nM,
"CC(=O)N(C)c1c(F)c(C)c(-c2ccn3nc(NC(=O)[C@@H]4C[C@@H]4F)cc3c2)c2cn[nH]c12 [Example 550, (1S,2S)-2-fluoro-N-(5-(6-fluoro-5-methyl-7-(N-methylacetamido)-1H-indazol-4-yl)pyrazolo[1,5-a]pyridin-2-yl)cyclopropane-1-carboxamide]",200 to 1000 nM,200 to 1000 nM,
"CSc1c(F)c(C)c(-c2ccn3nc(NC(=O)C4CC4)cc3c2)c2cn[nH]c12 [Example 562, N-(5-(6-fluoro-5-methyl-7-(methylthio)-1H-indazol-4-yl)pyrazolo[1,5-a]pyridin-2-yl)cyclopropanecarboxamide]",200 to 1000 nM,,
"CC(NC(=O)C1CCC1)c1c(F)c(Cl)c(-c2ccn3nc(NC(=O)[C@@H]4C[C@@H]4F)cc3c2)c2cn[nH]c12 (stereo partly drawn) [Example 661, N-(1-(5-chloro-6-fluoro-4-(2-((1S,2S)-2-fluorocyclopropane-1-carboxamido)pyrazolo[1,5-a]pyridin-5-yl)-1H-indazol-7-yl)ethyl)cyclobutanecarboxamide]",,,< 100 nM
"CC(NC(=O)C(F)F)c1c(F)c(Cl)c(-c2ccn3nc(NC(=O)[C@@H]4C[C@@H]4F)cc3c2)c2cn[nH]c12 (stereo partly drawn) [Example 665, (1S,2S)-N-(5-(5-chloro-7-(1-(2,2-difluoroacetamido)ethyl)-6-fluoro-1H-indazol-4-yl)pyrazolo[1,5-a]pyridin-2-yl)-2-fluorocyclopropane-1-carboxamide]",,,< 100 nM

# Results, then the compound that gave them:
"EC50 [1, 3]","EC50 [1, 4]",IC50 [2],SMILES
200 to 1000 nM,> 1000 nM,< 100 nM,"CSc1c(F)cc2[nH]ncc2c1-c1ccc2nc(NC(=O)[C@@H]3C[C@@H]3F)sc2c1 [Example 105, (1S,2S)-2-fluoro-N-(6-(6-fluoro-5-(methylthio)-1H-indazol-4-yl)benzo[d]thiazol-2-yl)cyclopropane-1-carboxamide]"
200 to 1000 nM,,< 100 nM,"CCOc1c(F)c(CC)c(-c2ccc3nc(NC(=O)[C@@H]4C[C@@H]4F)sc3c2)c2cn[nH]c12 [Example 107, (1S,2S)-N-(6-(7-ethoxy-5-ethyl-6-fluoro-1H-indazol-4-yl)benzo[d]thiazol-2-yl)-2-fluorocyclopropane-1-carboxamide]"
< 200 nM,,< 100 nM,"CSc1c(F)c(N(C)C)c2[nH]ncc2c1-c1ccc2nc(NC(=O)[C@@H]3C[C@@H]3F)sc2c1 [Example 110, (1S,2S)-N-(6-(7-(dimethylamino)-6-fluoro-5-(methylthio)-1H-indazol-4-yl)benzo[d]thiazol-2-yl)-2-fluorocyclopropane-1-carboxamide]"
< 200 nM,,< 100 nM,"CN(C)C(=O)c1c(F)c(Cl)c(-c2ccc3nc(NC(=O)[C@@H]4C[C@@H]4F)sc3c2)c2cn[nH]c12 [Example 125, 5-chloro-6-fluoro-4-(2-((1S,2S)-2-fluorocyclopropane-1-carboxamido)benzo[d]thiazol-6-yl)-N,N-dimethyl-1H-indazole-7-carboxamide]"
200 to 1000 nM,200 to 1000 nM,< 100 nM,"CSc1c(F)cc2[nH]ncc2c1-c1ccc2nc(NC(=O)[C@@H]3C[C@@H]3F)sc2n1 [Example 156, (1S,2S)-2-fluoro-N-(5-(6-fluoro-5-(methylthio)-1H-indazol-4-yl)thiazolo[5,4-b]pyridin-2-yl)cyclopropane-1-carboxamide]"
200 to 1000 nM,,< 100 nM,"CCc1c(F)c(N(C)C)c2[nH]ncc2c1-c1ccc2nc(NC(=O)[C@@H]3C[C@@H]3F)sc2n1 [Example 161, (1S,2S)-N-(5-(7-(dimethylamino)-5-ethyl-6-fluoro-1H-indazol-4-yl)thiazolo[5,4-b]pyridin-2-yl)-2-fluorocyclopropane-1-carboxamide]"
200 to 1000 nM,,,"CSc1c(F)c(C)c(-c2ccc3nc(NC(=O)[C@@H]4C[C@@H]4F)sc3n2)c2cn[nH]c12 [Example 173, (1S,2S)-2-fluoro-N-(5-(6-fluoro-5-methyl-7-(methylthio)-1H-indazol-4-yl)thiazolo[5,4-b]pyridin-2-yl)cyclopropane-1-carboxamide]"
200 to 1000 nM,200 to 1000 nM,,"CSc1c(F)c(C)c(-c2ccn3nc(NC(=O)[C@H]4C[C@H]4F)cc3c2)c2cn[nH]c12 [Example 574, (1R,2R)-2-fluoro-N-(5-(6-fluoro-5-methyl-7-(methylthio)-1H-indazol-4-yl)pyrazolo[1,5-a]pyridin-2-yl)cyclopropane-1-carboxamide]"
,,< 100 nM,"CC(NC(=O)C(F)(F)F)c1c(F)c(Cl)c(-c2ccn3nc(NC(=O)[C@@H]4C[C@@H]4F)cc3c2)c2cn[nH]c12 (stereo partly drawn) [Example 662, (1S,2S)-N-(5-(5-chloro-6-fluoro-7-(1-(2,2,2-trifluoroacetamido)ethyl)-1H-indazol-4-yl)pyrazolo[1,5-a]pyridin-2-yl)-2-fluorocyclopropane-1-carboxamide]"
,,< 100 nM,"CC(=O)NC(C)c1c(F)c(Cl)c(-c2ccn3nc(NC(=O)[C@@H]4C[C@@H]4F)cc3c2)c2cn[nH]c12 (stereo partly drawn) [Example 663, (1S,2S)-N-(5-(7-(1-acetamidoethyl)-5-chloro-6-fluoro-1H-indazol-4-yl)pyrazolo[1,5-a]pyridin-2-yl)-2-fluorocyclopropane-1-carboxamide]"
,,< 100 nM,"CNC(=O)N(C)c1c(F)c(Cl)c(-c2ccn3nc(NC(=O)[C@@H]4C[C@@H]4F)cc3c2)c2cn[nH]c12 [Example 664, (1S,2S)-N-(5-(5-chloro-7-(1,3-dimethylureido)-6-fluoro-1H-indazol-4-yl)pyrazolo[1,5-a]pyridin-2-yl)-2-fluorocyclopropane-1-carboxamide]"
,,101 to 500 nM,"CO[C@H](C)[C@@H](OC)c1c(F)c(Cl)c(-c2ccn3nc(NC(=O)[C@@H]4C[C@@H]4F)cc3c2)c2cn[nH]c12 [Example 666, (1S,2S)-N-(5-(5-chloro-7-((1S,2R)-1,2-dimethoxypropyl)-6-fluoro-1H-indazol-4-yl)pyrazolo[1,5-a]pyridin-2-yl)-2-fluorocyclopropane-1-carboxamide]"
